Results on two compounds are retold here after patent publication US5369103A, “Piperazine derivatives” (John Wyeth & Brother, Limited, priority 1990, dated 1994).

Assay [1] concerns the target T1, 5HT1A receptor (Rattus norvegicus, UniProt P19327).
T1 construct: rat hippocampal membrane homogenate; from tissue; host or cells: rat hippocampus, membrane homogenate
T1 sequence (P19327 1-422): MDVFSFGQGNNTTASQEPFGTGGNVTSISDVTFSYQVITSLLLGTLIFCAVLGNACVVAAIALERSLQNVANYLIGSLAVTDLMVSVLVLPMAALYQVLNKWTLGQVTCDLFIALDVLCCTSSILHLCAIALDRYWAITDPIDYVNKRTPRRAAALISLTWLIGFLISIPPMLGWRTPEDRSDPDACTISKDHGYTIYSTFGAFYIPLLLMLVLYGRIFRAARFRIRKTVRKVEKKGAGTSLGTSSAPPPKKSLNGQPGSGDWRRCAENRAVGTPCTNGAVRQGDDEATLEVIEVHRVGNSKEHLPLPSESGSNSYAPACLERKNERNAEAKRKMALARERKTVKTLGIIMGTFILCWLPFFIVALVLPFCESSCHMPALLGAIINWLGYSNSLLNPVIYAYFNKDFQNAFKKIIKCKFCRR
As to the kind of experiment: 5HT1A receptor binding activity in rat hippocampal membrane homogenate. The following applies: read-out: 1C50. Here is the method: The compounds of the invention were tested for 5HT1A receptor binding activity in rat hippocampal membrane homogenate by the method of B. S. Alexander and M. D. Wood, J Pharm Pharmacol, 1988, 40,888-891. The results for representative compounds of the invention are given below

Assay [2] deals with α1 sites. As to the kind of experiment: affinity for α1 sites. The assay is classed as binding. Particulars: read-out: 1C50.
Assay [3] has as its target T2, 5HT1A receptor (Cavia porcellus, UniProt A0A286Y074).
T2 construct: guinea-pig ileum in vitro; from tissue; host or cells: guinea-pig ileum
T2 sequence (A0A286Y074 1-421): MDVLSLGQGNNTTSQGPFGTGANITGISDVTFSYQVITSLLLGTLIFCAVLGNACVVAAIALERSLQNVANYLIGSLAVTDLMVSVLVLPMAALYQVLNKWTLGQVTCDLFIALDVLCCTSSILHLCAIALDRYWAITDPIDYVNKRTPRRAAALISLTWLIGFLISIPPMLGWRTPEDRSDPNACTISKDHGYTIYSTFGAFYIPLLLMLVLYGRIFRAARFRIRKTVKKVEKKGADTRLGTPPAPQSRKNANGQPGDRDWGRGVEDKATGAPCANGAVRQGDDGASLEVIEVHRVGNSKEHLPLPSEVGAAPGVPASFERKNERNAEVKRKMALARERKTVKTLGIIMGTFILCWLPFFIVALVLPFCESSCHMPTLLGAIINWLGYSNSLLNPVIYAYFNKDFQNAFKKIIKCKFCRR
Put plainly: 5HT1A receptor antagonism: antagonism of 5-carboxamidotryptamine in the guinea-pig ileum in vitro. The assay is classed as cell-based. The following applies: read-out: pA2 (converted). Here is the method:
The compounds are tested for 5HT1A receptor antagonism activity in a test involving the antagonism of 5-carboxamidotryptamine in the guinea-pig ileum in vitro (based upon the procedure of Fozard et al, Br J Pharmac, 1985, 86, 601P).

Consider `COc1ccccc1N1CCN(C/C(=C/C(=O)N2CCCCCC2)c2ccccc2)CC1` [Example 3 (E-isomer), 2,3,4,5,6,7-Hexahydro-1-[4-(4-(2-methoxyphenyl)piperazin-1-yl)-3-phenylbut-2-enoyl]-1H-azepine], for which the figures for the IC50 in assay [1] and in assay [2] were 9 nM and 2160 nM, respectively.
For `COc1ccccc1N1CCN(CC(CC(=O)N2CCCCCC2)c2ccccc2)CC1` (centres unmarked) [Example 6, 2,3,4,5,6,7-Hexahydro-1-[4-(4-(2-methoxyphenyl)piperazin-1-yl)-3-phenylbutanoyl]-1H-azepine], the results for the IC50 in assay [1] and in assay [2] were 1.38 nM and 682 nM, respectively. The Kb in assay [3] is 0.794 nM.
